Test results as given in PubChem BioAssay AID1963841 (Molecular Pharmacology Branch, DTP, NCI, 2024).
pIC50: −log10 of the molar value. Values joined by “and” are separate entries in the source; they are usually repeats but may differ in a detail not shown here. Equal values may be shown once.

System: 439559-082-T-J2-PDC spheroid viability
Test: Anticancer human tumor 439559-082-T-J2-PDC patient-derived colon adenocarcinoma cell line growth inhibition [POLQ]
Conditions: spheroids with HUVEC and MSC; for viability, T/C: stronger effect = lower value
Method: Multicellular complex tumor spheroid response to Polymerase (POL) inhibitors (novobiocin, ART-558, RP6685) in combination with a variety of drugs and investigational agents in selected tumor cell lines
The POL inhibitors (novobiocin, ART-558, and RP6685) were evaluated both individually and in combination with standard of care and investigational anticancer small molecules within a complex spheroid model of solid tumors. . Complex spheroids include a stromal component modeled by human endothelial cells (HUVEC) and fibroblasts modeled by human mesenchymal stem cells (MSCs). The concentration ranges selected for each drug and investigational agent were based upon clinically achievable concentrations if the clinical Cmax of the agent was known.
Compounds. The drugs and investigational agents: novobiocin (NSC847541), ART-558 (NSC835418), RP-6685 (NSC848927), peposertib (NSC802822), ceralasertib (NSC780249), elimusertib (NSC800525), camonsertib (NSC841442), AZD-1390 (NSC803789), olaparib (NSC753686), talazoparib (NSC767125), rucaparib (NSC756644), sotorasib (NSC818433), MRTX-1133 (NSC836407), SN-38 (NSC673596), topotecan (NSC609699), epotoside (NSC141540), doxorubicin (NSC123127), gemcitabine (NSC613327), 5-fluorouracil (NSC19893), paclitaxel (NSC125973), vemurafenib (NSC761431), MSA-2 (NSC828583), SN-011 (NSC837082), adavosertib (NSC754352), prexasertib (NSC758257), carboplatin (NSC241240) and oxaliplatin (NSC266046), were obtained from the National Cancer Institute (NCI) Developmental Therapeutics Program Chemical Repository (21). The FDA-approved anticancer drug set is available from the Developmental Therapeutics Program at https://dtp.cancer.gov/organization/dscb/obtaining/. […] The stock solutions were prepared in dimethyl sulfoxide (DMSO, Sigma-Aldrich, St. Louis, MO, cat. D2650), except for the platinum compounds which were prepared in saline (Quality Biological, Gaithersburg, MD, cat. 114-055-101), at 800-fold the tested concentration and stored at -70 degrees C prior to their use. All drugs and investigational agents were tested over a range starting from a high concentration at or near the clinical Cmax and decreasing in half-log increments. If the clinical Cmax for an agent had not been determined, the highest concentration tested was 10 microM, except for SN-38, which was tested at a high concentration of 1 microM.
Cell Culture. All cells were maintained in an incubator at 37 degrees C and 5% CO2 with 95% humidity. The PDC lines were cultured according to standard operating procedures established by the NCI PDMR (https://pdmr.cancer.gov). Table 3 of the manuscript, lists the cell lines along with the number of the three cell types plated to form the mct-spheroids and media for tumor cell growth. After thawing, all PDC lines, except 997537-175-T-J1-PDC and 415267-285-R-J2-PDC, were cultured in Matrigel-coated flasks prepared with a working solution of 1X Ham's F-12 nutrient mix, without supplementation (Thermo Fisher Scientific, cat. 11765054), 100 U/mL penicillin-streptomycin (Thermo Fisher Scientific, cat. 15140122), and 2.5% Matrigel (Corning Inc., Corning, NY, cat. 354248) for the first three passages. The two PDC lines 997537-175-T-J1-PDC and 415267-285-R-J2-PDC were cultured on uncoated flasks. The 857933-349-R-J2-PDC line was cultured in 6C/Colon 1B media containing advanced DMEM/F-12 (Thermo Fisher Scientific, cat. 12634028), 10 mM HEPES (Thermo Fisher Scientific, cat. 15630080), 1X GlutaMAX supplement (Thermo Fisher Scientific, cat. 35050061), 0.1 mg/mL primocin (InvivoGen, San Diego, CA, cat. ant-pm-2), 10% defined fetal bovine serum, heat inactivated (HyClone Laboratories Inc., Logan, UT, cat. SH30070.03HI), 50% L-WRN conditioned media (ATCC, cat. CRL-3276), 1.25 mM N-Acetyl-L-cysteine (Sigma-Aldrich, cat. A9165), 10 mM nicotinamide (Sigma-Aldrich, cat. N0636), 1X B-27 supplement (Thermo Fisher Scientific, cat. 17504044), 1X N-2 supplement (Thermo Fisher Scientific, cat. […]

[1] = compound alone, run of 12/05/2023
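Further: spheroids exposed to compounds for seven days before readout.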
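Wherever viability, T/C is given: 100% = DMSO vehicle control viability.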

pIC50 (compound alone, run of 11/27/2023)	pIC50 [1]	Compound	viability, T/C (compound 0.0316 µM)	viability, T/C (compound 0.1 µM)	viability, T/C (compound 0.316 µM)	viability, T/C (compound 1 µM)	viability, T/C (compound 3.16 µM)	viability, T/C (compound 10 µM)	pIC50 (curve of compound)	viability, T/C (compound 0.000316 µM)	viability, T/C (compound 0.001 µM)	viability, T/C (compound 0.00316 µM)	viability, T/C (compound 0.01 µM)
–	–	COc1ccc([C@@H](O)c2cc(-c3ncnc4cc(N5CCOCC5)ccc34)c(F)cc2Cl)nn1	94.6% and 84.4% and 97.3%	98.2% and 88.9% and 93%	93.3% and 85.8% and 90.6%	103% and 90.1% and 94.2%	89.3% and 96.5% and 85.9%	82.2% (2×) and 75.2%	< 5.00	–	–	–	–
–	–	Cn1ncnc1[C@H]1c2n[nH]c(=O)c3cc(F)cc(c23)N[C@@H]1c1ccc(F)cc1	97.2% and 98.5% and 107%	97.3% and 95.7% and 88.3%	–	–	–	–	< 7.00	101% and 102% and 94.5%	100% (2×) and 86.2%	94.4% and 97.9% and 97.8%	96.7% and 93.2% and 100%
–	–	CC1COCCN1c1cc(C2(O)CC3CCC(C2)O3)c2cnn(-c3ccn[nH]3)c2n1 (configuration not stated)	92.2% and 97.5% and 97.8%	82.7% and 81.3% and 85.3%	70.9% and 70.1% and 75.3%	61.7% and 59.7% and 72.1%	47.5% and 49% and 59.7%	46.5% and 47% and 53.5%	5.46 and 5.39 and < 5.00	–	–	–	–
–	–	C=CCn1c(=O)c2cnc(Nc3ccc(N4CCN(C)CC4)cc3)nc2n1-c1cccc(C(C)(C)O)n1	98.5% and 99.2% and 89.3%	97.7% and 104% and 90.1%	99.3% and 97.5% and 91.7%	81.2% (2×) and 83.4%	–	–	< 6.00	–	–	97.3% and 99% and 101%	93.6% and 96.3% and 96.2%
< 5.00	< 5.00	Cc1cccc(N(C)C(=O)C2C(O)CCN2c2nc(C)cc(C(F)(F)F)c2C#N)c1 (configuration not stated)	98.9% [middle of 12 runs]	95.7% [middle of 12 runs]	97.4% [middle of 12 runs]	98.2% [middle of 12 runs]	97% [middle of 12 runs]	101% [middle of 12 runs]	–	–	–	–	–
–	< 5.00	Nc1ccc(C#CCN(C(=O)Cc2ncc(C(F)(F)F)cc2C(F)(F)F)c2ccc(F)cc2)nn1	96.1% [middle of 13 runs]	97.8% [middle of 13 runs]	96% [middle of 13 runs]	100% [middle of 13 runs]	99.5% [middle of 13 runs]	–	–	–	–	–	–
